The results in this text go back to PubChem BioAssay AID330 (DTP/NCI, 2004).

Values joined by “and” are separate entries in the source; they are usually repeats but may differ in a detail not shown here. Equal values may be shown once. Toxic doses and inconclusive results are not listed.

The test system of the experiment is P388 leukemia ip, CD2F1 mice, survival T/C. The experiment can be described thus: NCI In Vivo Anticancer Drug Screen. Data for tumor model P388 Leukemia (intraperitoneal) in CD2F1 (CDF1) mice. The conditions noted are these: endpoint: median survival time, higher = longer survival. The gist of the method:
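Mice carrying the transplanted tumor received test compound or vehicle. Survival was recorded in each group, and the value is the treated-group measurement divided by that of the vehicle-treated control group.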

Where [1] appears, read: dose: 2.5 mg/kg/injection, schedule: Q01DX009 (ip), vehicle: saline.
Where [2] appears, read: dose: 5.0 mg/kg/injection, schedule: Q01DX009 (ip), vehicle: saline.
The mark [3] stands for this setting: dose: 50.0 mg/kg/injection, schedule: Q01DX009 (ip), vehicle: saline with Tween-80.
Setting [4] is: dose: 50.0 mg/kg/injection, schedule: Q04DX003 (ip), vehicle: saline with Tween-80.
[5] abbreviates: dose: 100.0 mg/kg/injection, schedule: Q04DX003 (ip), vehicle: saline with Tween-80.
The mark [6] stands for this setting: dose: 50.0 mg/kg/injection, schedule: Q01DX005 (ip), vehicle: saline with Tween-80.
The mark [7] stands for this setting: dose: 100.0 mg/kg/injection, schedule: Q01DX005 (ip), vehicle: saline with Tween-80.
[8] abbreviates: dose: 200.0 mg/kg/injection, schedule: Q01DX005 (ip), vehicle: saline with Tween-80.
Where [9] appears, read: dose: 12.5 mg/kg/injection, schedule: Q01DX009 (ip), vehicle: saline with Tween-80.
Setting [10] is: dose: 25.0 mg/kg/injection, schedule: Q01DX009 (ip), vehicle: saline with Tween-80.
Where [11] appears, read: dose: 100.0 mg/kg/injection, schedule: Q01DX009 (ip), vehicle: saline with Tween-80.
Setting [12] is: dose: 200.0 mg/kg/injection, schedule: Q01DX009 (ip), vehicle: saline with Tween-80.
Where [13] appears, read: dose: 200.0 mg/kg/injection, schedule: Q04DX003 (ip), vehicle: saline with Tween-80.
Setting [14] is: dose: 50.0 mg/kg/injection, schedule: Q01DX005 (ip), vehicle: Klucel (hydroxypropylcellulose) (HPC).
Where [15] appears, read: dose: 100.0 mg/kg/injection, schedule: Q01DX005 (ip), vehicle: Klucel (hydroxypropylcellulose) (HPC).
The mark [16] stands for this setting: dose: 200.0 mg/kg/injection, schedule: Q01DX005 (ip), vehicle: Klucel (hydroxypropylcellulose) (HPC).

As for `CC1CCC2(OC1)OC1C(O)C3C4CCC5CC(OC6OC(CO)C(OC7OC(CO)C(O)C(OC8OCC(O)C(O)C8O)C7OC7OC(CO)C(O)C(OC8OC(CO)C(O)C(O)C8O)C7O)C(O)C6O)C(O)CC5(C)C4CCC3(C)C1C2C` (centres undefined), the T/C was 101 % of control (dose: 0.62 mg/kg/injection, schedule: Q01DX009 (ip), vehicle: saline); 98 % of control (dose: 1.25 mg/kg/injection, schedule: Q01DX009 (ip), vehicle: saline); 93 % of control under setting [1]; 87 % of control under setting [2]; 86 % of control (dose: 40.0 mg/kg/injection, schedule: Q01DX009 (ip), vehicle: saline).
In the case of `C[As](C)SC(CO)C1OC2OC(C)(C)OC2C1O` (centres undefined), the T/C (dose: 50.0 mg/kg/injection, schedule: Q01DX009 (ip), vehicle: saline + alcohol) is 108 % of control.
In the case of `CC(NC(=O)C(=O)c1c[nH]c2ccccc12)C(=O)O` (centres undefined), the T/C (dose: 60.0 mg/kg/injection, schedule: Q01DX005 (ip), vehicle: saline with Tween-80) is 98 % of control; the T/C (dose: 120.0 mg/kg/injection, schedule: Q01DX005 (ip), vehicle: saline with Tween-80) is 96 % of control; the T/C (dose: 240.0 mg/kg/injection, schedule: Q01DX005 (ip), vehicle: saline with Tween-80) was 103 % of control.
With `O=C1C=C(O/C=C/C(C(F)(F)F)C(F)(F)F)C(=O)c2ccccc21`, the T/C is 115 % of control under setting [3], 91 % of control under setting [4] and 95 % of control under setting [5].
For `CC1CN1CC(O)C(O)CN1CC1C` (centres undefined), the T/C is 109 % of control (dose: 0.01 mg/kg/injection, schedule: Q04DX003 (ip), vehicle: saline); 104 % of control (dose: 0.02 mg/kg/injection, schedule: Q04DX003 (ip), vehicle: saline); 160 % of control (dose: 0.15 mg/kg/injection, schedule: Q04DX003 (ip), vehicle: saline); 170 % of control (dose: 0.3 mg/kg/injection, schedule: Q04DX003 (ip), vehicle: saline); 160 % of control (dose: 0.5 mg/kg/injection, schedule: Q04DX003 (ip), vehicle: saline); 170 % of control (dose: 0.6 mg/kg/injection, schedule: Q04DX003 (ip), vehicle: saline). In addition, the T/C by setting is: (dose: 0.62 mg/kg/injection, schedule: Q04DX003 (ip), vehicle: saline) 154 % of control; (dose: 1.0 mg/kg/injection, schedule: Q04DX003 (ip), vehicle: saline) 185 % of control; (dose: 1.25 mg/kg/injection, schedule: Q01DX009 (ip), vehicle: saline with Tween-80) 272 % of control; (dose: 1.25 mg/kg/injection, schedule: Q04DX003 (ip), vehicle: saline) 163 % of control; (dose: 2.0 mg/kg/injection, schedule: Q04DX003 (ip), vehicle: saline) 240 % of control; (dose: 2.5 mg/kg/injection, schedule: Q01DX009 (ip), vehicle: saline with Tween-80) 95 % of control. Besides, the T/C reads like this: under setting [1], 222 % of control; (dose: 2.5 mg/kg/injection, schedule: Q04DX003 (ip), vehicle: saline) 222 % of control; (dose: 3.0 mg/kg/injection, schedule: Q04DX003 (ip), vehicle: saline) 172 % of control; (dose: 3.3 mg/kg/injection, schedule: Q04DX003 (ip), vehicle: saline) 212 % of control; under setting [2], 122 % of control; (dose: 5.0 mg/kg/injection, schedule: Q04DX003 (ip), vehicle: saline) 231 % of control and 183 % of control and 230 % of control. Further, the T/C is, setting by setting: (dose: 6.0 mg/kg/injection, schedule: Q04DX003 (ip), vehicle: saline) 268 % of control; (dose: 7.5 mg/kg/injection, schedule: Q04DX003 (ip), vehicle: saline) 272 % of control; (dose: 10.0 mg/kg/injection, schedule: Q04DX003 (ip), vehicle: saline) 268 % of control; (dose: 63.0 micrograms/kg/injection, schedule: Q04DX003 (ip), vehicle: saline) 100 % of control; (dose: 125.0 micrograms/kg/injection, schedule: Q04DX003 (ip), vehicle: saline) 100 % of control; (dose: 250.0 micrograms/kg/injection, schedule: Q04DX003 (ip), vehicle: saline) 104 % of control.
Take `N/C(=N\C(O)C(Cl)(Cl)Cl)SCNC(=O)NCS/C(N)=N/C(O)C(Cl)(Cl)Cl` (centres undefined): the T/C under setting [6] was 105 % of control, the T/C under setting [7] was 100 % of control and the T/C under setting [8] is 95 % of control.
For the compound `CC(C)NC(=O)OCc1c(COC(=O)NC(C)C)c(-c2ccc(Cl)c(Cl)c2)n2c1CC(OC(=O)CN(C)C)C2` (centres undefined), the T/C was 101 % of control (dose: 2.5 mg/kg/injection, schedule: Q01DX009 (ip), vehicle: water); 111 % of control (dose: 5.0 mg/kg/injection, schedule: Q01DX009 (ip), vehicle: distilled water + Tween-80); 117 % of control (dose: 5.0 mg/kg/injection, schedule: Q01DX009 (ip), vehicle: water); 122 % of control (dose: 10.0 mg/kg/injection, schedule: Q01DX009 (ip), vehicle: distilled water + Tween-80); 110 % of control (dose: 80.0 mg/kg/injection, schedule: Q01DX009 (ip), vehicle: water).
For the compound `COc1cc2c(cc1O)C(CSC)Cc1cc3c(cc1N(C)CC2)OCO3` (centres undefined), the T/C by setting is: under setting [9], 100 % of control; under setting [10], 100 % of control; under setting [3], 102 % of control; under setting [11], 88 % of control; under setting [12], 95 % of control.
As for `CNC(=S)N/N=C/c1nccc(-c2ccccc2)c1C`, the T/C under setting [13] is 107 % of control.
Consider `CCC(c1ccc(Cl)cc1)C(C#N)c1ccccc1` (centres undefined), for which the T/C under setting [5] is 100 % of control; the T/C under setting [13] is 97 % of control; the T/C (dose: 400.0 mg/kg/injection, schedule: Q04DX003 (ip), vehicle: saline with Tween-80) was 100 % of control.
Turning to `CCCCc1ccc(N2C(N)=NC(N)=NC2(C)C)cc1`, the T/C (dose: 3.12 mg/kg/injection, schedule: Q01DX005 (ip), vehicle: Klucel (hydroxypropylcellulose) (HPC)) is 108 % of control and 106 % of control and 111 % of control; the T/C (dose: 6.25 mg/kg/injection, schedule: Q01DX005 (ip), vehicle: Klucel (hydroxypropylcellulose) (HPC)) was 110 % of control [middle of 4 runs]; the T/C (dose: 12.5 mg/kg/injection, schedule: Q01DX005 (ip), vehicle: Klucel (hydroxypropylcellulose) (HPC)) is 114 % of control [middle of 4 runs]; the T/C (dose: 25.0 mg/kg/injection, schedule: Q01DX005 (ip), vehicle: Klucel (hydroxypropylcellulose) (HPC)) was 120 % of control and 109 % of control.
In the case of `C/C(N)=C\C#N`, the T/C (dose: 25.0 mg/kg/injection, schedule: Q04DX003 (ip), vehicle: saline with Tween-80) is 100 % of control; the T/C under setting [4] was 101 % of control; the T/C under setting [5] was 98 % of control and 97 % of control.
As to `CCOC(=O)C1=C(N)OC(c2ccccc2)=C(C#N)C1c1ccc(C)cc1` (centres undefined), the T/C was 110 % of control under setting [14], 107 % of control under setting [15] and 100 % of control under setting [16].
In the case of `O=C(Nc1ccccc1)Oc1ccc(/C=N/Sc2cccc([N+](=O)[O-])c2)cc1`, the T/C under setting [3] was 87 % of control, the T/C under setting [11] was 101 % of control and the T/C under setting [12] is 106 % of control.
With `O=C(O)c1cc(C(=O)O)cc(N2C(=O)c3ccccc3C2=O)c1`, the T/C (dose: 50.0 mg/kg/injection, schedule: Q01DX009 (ip), vehicle: saline) is 100 % of control; the T/C (dose: 100.0 mg/kg/injection, schedule: Q01DX009 (ip), vehicle: saline) was 87 % of control; the T/C (dose: 200.0 mg/kg/injection, schedule: Q01DX009 (ip), vehicle: saline) is 89 % of control.
Consider `CN(C)c1ccc(C(C#N)C(C#N)c2ccccc2)cc1` (centres undefined), for which the T/C is 94 % of control (dose: 6.25 mg/kg/injection, schedule: Q01DX009 (ip), vehicle: saline with Tween-80); 94 % of control under setting [9]; 103 % of control under setting [10]; 100 % of control under setting [3].
Take `COCCCN1CNC(=S)NC1`: the T/C is, setting by setting: under setting [6], 101 % of control; under setting [7], 100 % of control; under setting [8], 101 % of control.
For the compound `CCC(c1ccc(OC)cc1)c1cc2c(cc1OC)OCO2` (centres undefined), the T/C by setting is: under setting [14], 97 % of control; under setting [15], 106 % of control; under setting [16], 113 % of control.
